Data taken from ChEMBL document CHEMBL2202996, “Synthesis, evaluation, and radiolabeling of new potent positive allosteric modulators of the metabotropic glutamate receptor 2 as potential tracers for positron emission tomography imaging” (J Med Chem, 2012).

Columns and labels:
Thalamus [1] = assay: Biodistribution in Wistar rat thalamus at 41 MBq, iv measured at 12 to 28 mins post administration by microPET imaging in presence of JNJ-40068782; type: ADME, organism-based; details: in vivo
Hippocampus [2] = assay: Biodistribution in Wistar rat hippocampus at 41 MBq, iv measured at 12 to 28 mins post administration by microPET imaging in presence of JNJ-40068782; type: ADME, organism-based; details: in vivo
Cortex [3] = assay: Biodistribution in Wistar rat cortex at 41 MBq, iv measured at 12 to 28 mins post administration by microPET imaging in presence of JNJ-40068782; type: ADME, organism-based; details: in vivo
Cerebellum [4] = assay: Biodistribution in Wistar rat cerebellum at 41 MBq, iv measured at 12 to 28 mins post administration by microPET imaging in presence of JNJ-40068782; type: ADME, organism-based; details: in vivo
Striatum [5] = assay: Biodistribution in Wistar rat striatum at 41 MBq, iv measured at 12 to 28 mins post administration by microPET imaging in presence of JNJ-40068782; type: ADME, organism-based; details: in vivo
Thalamus [6] = assay: Biodistribution in Wistar rat thalamus at 41 MBq, iv measured at 12 to 28 mins post administration by microPET imaging; type: ADME, organism-based; details: in vivo
Hippocampus [7] = assay: Biodistribution in Wistar rat hippocampus at 41 MBq, iv measured at 12 to 28 mins post administration by microPET imaging; type: ADME, organism-based; details: in vivo
Cortex [8] = assay: Biodistribution in Wistar rat cortex at 41 MBq, iv measured at 12 to 28 mins post administration by microPET imaging; type: ADME, organism-based; details: in vivo
Cerebellum [9] = assay: Biodistribution in Wistar rat cerebellum at 41 MBq, iv measured at 12 to 28 mins post administration by microPET imaging; type: ADME, organism-based; details: in vivo
Striatum [10] = assay: Biodistribution in Wistar rat striatum at 41 MBq, iv measured at 12 to 28 mins post administration by microPET imaging; type: ADME, organism-based; details: in vivo
Brain [11] = assay: Biodistribution in Wistar rat brain at 41 MBq, iv measured at 27 mins post administration by microPET imaging; type: ADME, organism-based; details: in vivo, 0.45 h
Brain [12] = assay: Biodistribution in Wistar rat brain at 41 MBq, iv measured at 12 mins post administration by microPET imaging; type: ADME, organism-based; details: in vivo, 0.2 h
[13] = Metabolic stability in Wistar rat cerebellum assessed as intact tracer at 74 MBq, iv measured at 30 mins post administration by gamma counting; type: ADME, organism-based; details: read-out: Stability
[14] = Metabolic stability in Wistar rat cerebrum assessed as intact tracer at 74 MBq, iv measured at 30 mins post administration by gamma counting; type: ADME, organism-based; details: read-out: Stability
[15] = Metabolic stability in Wistar rat plasma assessed as intact tracer at 74 MBq, iv measured at 30 mins post administration by gamma counting; type: ADME, organism-based; details: read-out: Stability
Rattus norvegicus = assay: Biodistribution in Wistar rat urinary system at 22 Mbq, iv measured at 60 mins post administration by gamma counting; type: ADME, organism-based, Urine; details: in vivo, 1 h
Liver = assay: Biodistribution in Wistar rat liver at 22 Mbq, iv measured at 60 mins post administration by gamma counting; type: ADME, organism-based; details: in vivo, 1 h
Intestine = assay: Biodistribution in Wistar rat intestine at 22 Mbq, iv measured at 60 mins post administration by gamma counting; type: ADME, organism-based; details: in vivo, 1 h
Blood [16] = assay: Biodistribution in Wistar rat blood at 22 Mbq, iv measured at 60 mins post administration by gamma counting; type: ADME, organism-based; details: in vivo, 1 h
Brain [17] = assay: Ratio of SUV in total brain in iv dosed Wistar at 2 mins post administration by gamma counting to SUV in total brain in iv dosed Wistar at 30 mins post administration by gamma counting; type: ADME, organism-based; details: rat, in vivo
Blood [18] = assay: Biodistribution in Wistar rat blood at 22 Mbq, iv measured at 2 mins post administration by gamma counting; type: ADME, organism-based; details: in vivo
Cerebellum [19] = assay: Ratio of SUV in cerebellum in iv dosed Wistar at 2 mins post administration by gamma counting to SUV in cerebellum in iv dosed Wistar at 30 mins post administration by gamma counting; type: ADME, organism-based; details: rat, in vivo
Cerebrum [20] = assay: Ratio of SUV in cerebrum in iv dosed Wistar at 2 mins post administration by gamma counting to SUV in cerebrum in iv dosed Wistar at 30 mins post administration by gamma counting; type: ADME, organism-based; details: rat, in vivo
Cortex [21] = assay: Ratio of SUV in cortex in iv dosed Wistar at 2 mins post administration by gamma counting to SUV in cortex in iv dosed Wistar at 30 mins post administration by gamma counting; type: ADME, organism-based; details: rat, in vivo
Hippocampus [22] = assay: Ratio of SUV in hippocampus in iv dosed Wistar at 2 mins post administration by gamma counting to SUV in hippocampus in iv dosed Wistar at 30 mins post administration by gamma counting; type: ADME, organism-based; details: rat, in vivo
Striatum [23] = assay: Ratio of SUV in striatum in iv dosed Wistar at 2 mins post administration by gamma counting to SUV in striatum in iv dosed Wistar at 30 mins post administration by gamma counting; type: ADME, organism-based; details: rat, in vivo
Brain [24] = assay: Biodistribution in iv dosed Wistar rat total brain measured at 60 mins post administration by gamma counting; type: ADME, organism-based; details: in vivo, 1 h
Blood [25] = assay: Biodistribution in iv dosed Wistar rat blood measured at 60 mins post administration by gamma counting; type: ADME, organism-based; details: in vivo, 1 h
Cerebellum [26] = assay: Biodistribution in iv dosed Wistar rat cerebellum measured at 60 mins post administration by gamma counting; type: ADME, organism-based; details: in vivo, 1 h
Cortex [27] = assay: Biodistribution in iv dosed Wistar rat cortex measured at 60 mins post administration by gamma counting; type: ADME, organism-based; details: in vivo, 1 h
Cerebrum [28] = assay: Biodistribution in iv dosed Wistar rat cerebrum measured at 60 mins post administration by gamma counting; type: ADME, organism-based; details: in vivo, 1 h
Hippocampus [29] = assay: Biodistribution in iv dosed Wistar rat hippocampus measured at 60 mins post administration by gamma counting; type: ADME, organism-based; details: in vivo, 1 h
Blood [30] = assay: Biodistribution in iv dosed Wistar rat blood measured at 30 mins post administration by gamma counting; type: ADME, organism-based; details: in vivo, 0.5 h
Striatum [31] = assay: Biodistribution in iv dosed Wistar rat striatum measured at 60 mins post administration by gamma counting; type: ADME, organism-based; details: in vivo, 1 h
Brain [32] = assay: Biodistribution in iv dosed Wistar rat total brain measured at 30 mins post administration by gamma counting; type: ADME, organism-based; details: in vivo, 0.5 h
Cerebrum [33] = assay: Biodistribution in iv dosed Wistar rat cerebrum measured at 30 mins post administration by gamma counting; type: ADME, organism-based; details: in vivo, 0.5 h
Cerebellum [34] = assay: Biodistribution in iv dosed Wistar rat cerebellum measured at 30 mins post administration by gamma counting; type: ADME, organism-based; details: in vivo, 0.5 h
Cortex [35] = assay: Biodistribution in iv dosed Wistar rat cortex measured at 30 mins post administration by gamma counting; type: ADME, organism-based; details: in vivo, 0.5 h
Hippocampus [36] = assay: Biodistribution in iv dosed Wistar rat hippocampus measured at 30 mins post administration by gamma counting; type: ADME, organism-based; details: in vivo, 0.5 h
Blood [37] = assay: Biodistribution in iv dosed Wistar rat blood measured at 2 mins post administration by gamma counting; type: ADME, organism-based; details: in vivo
Striatum [38] = assay: Biodistribution in iv dosed Wistar rat striatum measured at 30 mins post administration by gamma counting; type: ADME, organism-based; details: in vivo, 0.5 h
Cerebellum [39] = assay: Biodistribution in iv dosed Wistar rat cerebellum measured at 2 mins post administration by gamma counting; type: ADME, organism-based; details: in vivo
Brain [40] = assay: Biodistribution in iv dosed Wistar rat total brain measured at 2 mins post administration by gamma counting; type: ADME, organism-based; details: in vivo
Cerebrum [41] = assay: Biodistribution in iv dosed Wistar rat cerebrum measured at 2 mins post administration by gamma counting; type: ADME, organism-based; details: in vivo
Hippocampus [42] = assay: Biodistribution in iv dosed Wistar rat hippocampus measured at 2 mins post administration by gamma counting; type: ADME, organism-based; details: in vivo
Cortex [43] = assay: Biodistribution in iv dosed Wistar rat cortex measured at 2 mins post administration by gamma counting; type: ADME, organism-based; details: in vivo
Striatum [44] = assay: Biodistribution in iv dosed Wistar rat striatum measured at 2 mins post administration by gamma counting; type: ADME, organism-based; details: in vivo
Cerebellum [45] = assay: Biodistribution in Wistar rat cerebellum at 22 Mbq, iv measured at 2 mins post administration by gamma counting; type: ADME, organism-based; details: in vivo
Cerebrum [46] = assay: Biodistribution in Wistar rat cerebrum at 22 Mbq, iv measured at 2 mins post administration by gamma counting; type: ADME, organism-based; details: in vivo
Brain [47] = assay: Biodistribution in Wistar rat brain at 22 Mbq, iv measured at 2 mins post administration by gamma counting; type: ADME, organism-based; details: in vivo

Drug uptake (Thalamus [1]): Not Active
Drug uptake (Hippocampus [2]): Not Active
Drug uptake (Cortex [3]): Not Active
Drug uptake (Cerebellum [4]): Not Active
Drug uptake (Striatum [5]): Not Active
Drug uptake (Thalamus [6]): Active
Drug uptake (Hippocampus [7]): Active
Drug uptake (Cortex [8]): Active
Drug uptake (Cerebellum [9]): Active
Drug uptake (Striatum [10]): Active
SUV (Brain [11]): 1.7
SUV (Brain [12]): 1.7
remaining at 0.5 h [13]: 95.5%
remaining at 0.5 h [14]: 90.3%
remaining at 0.5 h [15]: 69.7%
Drug uptake (Rattus norvegicus): 2.4 %ID
Drug uptake (Liver): 35.7%
Drug uptake (Intestine): 35.7%
Drug uptake (Blood [16]): 2 %ID
Ratio (Brain [17]): 0.65
Drug uptake (Blood [18]): 4.3 %ID
Ratio (Cerebellum [19]): 0.61
Ratio (Cerebrum [20]): 0.67
Ratio (Cortex [21]): 0.82
Ratio (Hippocampus [22]): 0.6
Ratio (Striatum [23]): 0.57
SUV (Brain [24]): 1.18
SUV (Blood [25]): 0.28
SUV (Cerebellum [26]): 1.75
SUV (Cortex [27]): 1.28
SUV (Cerebrum [28]): 1.11
SUV (Hippocampus [29]): 0.73
SUV (Blood [30]): 0.39
SUV (Striatum [31]): 1.72
SUV (Brain [32]): 2.13
SUV (Cerebrum [33]): 1.96
SUV (Cerebellum [34]): 2.62
SUV (Cortex [35]): 1.77
SUV (Hippocampus [36]): 1.49
SUV (Blood [37]): 0.61
SUV (Striatum [38]): 2.14
SUV (Cerebellum [39]): 1.59
SUV (Brain [40]): 1.39
SUV (Cerebrum [41]): 1.32
SUV (Hippocampus [42]): 0.9
SUV (Cortex [43]): 1.46
SUV (Striatum [44]): 1.22
Drug uptake (Cerebellum [45]): 0.17 %ID
Drug uptake (Cerebrum [46]): 0.69 %ID
Drug uptake (Brain [47]): 0.88 %ID
SMILES: [11CH3]Oc1c(F)ccc(F)c1C1CCN(c2ccn3c(CC4CC4)nnc3c2Cl)CC1
